Assay results: ChEMBL document CHEMBL1201862, “PubChem BioAssay data set” (2004)
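Tested at 5 concentrations; 48 h exposure; 96-well plates; endpoints linearly interpolated, else capped at highest concentration. GI50 marks 50% less growth.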 Calls of active or inactive are those of the source. Rule as the data show it: active = GI50 up to about 1.1 µM and inactive = higher.

Assays:
Test in all cases: inhibition of tumour cell growth, NCI panel, 48 h
COLO 205 = tested on: COLO 205
NCI-H226 = tested on: NCI-H226
U-251 = tested on: U-251
T47D = tested on: T47D
LOX IMVI = tested on: LOX IMVI
NCI-H23 = tested on: NCI-H23
SK-MEL-5 = tested on: SK-MEL-5
MDA-MB-231 = tested on: MDA-MB-231
TK-10 = tested on: TK-10
OVCAR-8 = tested on: OVCAR-8
SK-MEL-2 = tested on: SK-MEL-2
Hs-578T = tested on: Hs-578T
RXF 393 = tested on: RXF 393
A549 = tested on: A549
BT-549 = tested on: BT-549
Malme-3M = tested on: Malme-3M
SNB-75 = tested on: SNB-75
EKVX = tested on: EKVX
SN12C = tested on: SN12C
MDA-MB-435 = tested on: MDA-MB-435
IGROV-1 = tested on: IGROV-1
HCC 2998 = tested on: HCC 2998
PC-3 = tested on: PC-3
HL-60 = tested on: HL-60
SF-268 = tested on: SF-268
SK-OV-3 = tested on: SK-OV-3
UACC-62 = tested on: UACC-62
A498 = tested on: A498
KM12 = tested on: KM12
OVCAR-4 = tested on: OVCAR-4
HOP-62 = tested on: HOP-62
HCT-116 = tested on: HCT-116
OVCAR-3 = tested on: OVCAR-3
HT-29 = tested on: HT-29
UO-31 = tested on: UO-31
SNB-19 = tested on: SNB-19
DU-145 = tested on: DU-145
SW-620 = tested on: SW-620
CAKI-1 = tested on: CAKI-1
MDA-N = tested on: MDA-N
OVCAR-5 = tested on: OVCAR-5
MOLT-4 = tested on: MOLT-4
M14 = tested on: M14
ACHN = tested on: ACHN
SR = tested on: SR
K562 = tested on: K562
RPMI-8226 = tested on: RPMI-8226
CCRF-CEM = tested on: CCRF-CEM
NCI-H522 = tested on: NCI-H522
786-0 = tested on: 786-0
NCI/ADR-RES = tested on: NCI/ADR-RES
SF-295 = tested on: SF-295
UACC-257 = tested on: UACC-257
MCF7 = tested on: MCF7
HCT-15 = tested on: HCT-15
SK-MEL-28 = tested on: SK-MEL-28
NCI-H460 = tested on: NCI-H460
SF-539 = tested on: SF-539
HOP-92 = tested on: HOP-92

## CNC(c1ccncc1)C(NC)c1ccncc1 (stereo not given)
COLO 205
  GI50: > 100 µM (inactive)
NCI-H226
  GI50: > 100 µM (inactive)
U-251
  GI50: > 100 µM (inactive)
T47D
  GI50: > 100 µM (inactive)
LOX IMVI
  GI50: > 100 µM (inactive)
NCI-H23
  GI50: > 100 µM (inactive)
SK-MEL-5
  GI50: > 100 µM (inactive)
MDA-MB-231
  GI50: > 100 µM (inactive)
TK-10
  GI50: > 100 µM (inactive)
OVCAR-8
  GI50: > 100 µM (inactive)
SK-MEL-2
  GI50: > 100 µM (inactive)
Hs-578T
  GI50: 90.8 µM (inactive)
RXF 393
  GI50: > 100 µM (inactive)
A549
  GI50: > 100 µM (inactive)
BT-549
  GI50: > 100 µM (inactive)
Malme-3M
  GI50: > 100 µM (inactive)
SNB-75
  GI50: > 100 µM (inactive)
EKVX
  GI50: > 100 µM (inactive)
SN12C
  GI50: > 100 µM (inactive)
MDA-MB-435
  GI50: > 100 µM (inactive)
IGROV-1
  GI50: > 100 µM (inactive)
HCC 2998
  GI50: > 100 µM (inactive)
PC-3
  GI50: > 100 µM (inactive)
HL-60
  GI50: > 100 µM (inactive)
SF-268
  GI50: > 100 µM (inactive)
SK-OV-3
  GI50: > 100 µM (inactive)
UACC-62
  GI50: > 100 µM (inactive)
A498
  GI50: > 100 µM (inactive)
KM12
  GI50: > 100 µM (inactive)
OVCAR-4
  GI50: > 100 µM (inactive)
HOP-62
  GI50: > 100 µM (inactive)
HCT-116
  GI50: > 100 µM (inactive)
OVCAR-3
  GI50: > 100 µM (inactive)
HT-29
  GI50: > 100 µM (inactive)
UO-31
  GI50: > 100 µM (inactive)
SNB-19
  GI50: > 100 µM (inactive)
DU-145
  GI50: > 100 µM (inactive)
SW-620
  GI50: > 100 µM (inactive)
CAKI-1
  GI50: > 100 µM (inactive)
MDA-N
  GI50: > 100 µM (inactive)
OVCAR-5
  GI50: > 100 µM (inactive)
MOLT-4
  GI50: > 100 µM (inactive)
M14
  GI50: > 100 µM (inactive)
ACHN
  GI50: > 100 µM (inactive)
SR
  GI50: > 100 µM (inactive)
K562
  GI50: > 100 µM (inactive)
RPMI-8226
  GI50: > 100 µM (inactive)
CCRF-CEM
  GI50: > 100 µM (inactive)
NCI-H522
  GI50: > 100 µM (inactive)
786-0
  GI50: > 100 µM (inactive)
NCI/ADR-RES
  GI50: > 100 µM (inactive)
SF-295
  GI50: > 100 µM (inactive)
UACC-257
  GI50: > 100 µM (inactive)
MCF7
  GI50: > 100 µM (inactive)
HCT-15
  GI50: > 100 µM
SK-MEL-28
  GI50: > 100 µM (inactive)

## COC(=O)[C@H](Cc1ccccc1)NC(=O)NCCN(CCNC(=O)N[C@@H](Cc1ccccc1)C(=O)OC)C(=O)N[C@@H](Cc1ccccc1)C(=O)OC
NCI-H460
  GI50: 18.8 µM (inactive)
COLO 205
  GI50: 21.9 µM (inactive)
NCI-H226
  GI50: 18.2 µM (inactive)
U-251
  GI50: 21.8 µM (inactive)
T47D
  GI50: 22.6 µM (inactive)
LOX IMVI
  GI50: 38.4 µM (inactive)
NCI-H23
  GI50: 18.9 µM (inactive)
SK-MEL-5
  GI50: 20.7 µM (inactive)
MDA-MB-231
  GI50: 23.7 µM (inactive)
TK-10
  GI50: 20.1 µM (inactive)
OVCAR-8
  GI50: 18.3 µM (inactive)
SK-MEL-2
  GI50: 21.8 µM (inactive)
Hs-578T
  GI50: 23.8 µM (inactive)
RXF 393
  GI50: 16.9 µM (inactive)
A549
  GI50: 29 µM (inactive)
BT-549
  GI50: 18.9 µM (inactive)
Malme-3M
  GI50: 22 µM (inactive)
SNB-75
  GI50: 20.7 µM (inactive)
EKVX
  GI50: 30.6 µM (inactive)
SN12C
  GI50: > 10 µM (inactive)
MDA-MB-435
  GI50: 22.3 µM (inactive)
HCC 2998
  GI50: 20.3 µM (inactive)
PC-3
  GI50: 22.3 µM (inactive)
SF-268
  GI50: 17 µM (inactive)
SK-OV-3
  GI50: 31.9 µM (inactive)
UACC-62
  GI50: 25.5 µM (inactive)
A498
  GI50: 32.9 µM (inactive)
SF-539
  GI50: 18.8 µM (inactive)
KM12
  GI50: 20.9 µM (inactive)
OVCAR-4
  GI50: 15.2 µM (inactive)
HOP-62
  GI50: 20.7 µM (inactive)
HCT-116
  GI50: 20.3 µM (inactive)
OVCAR-3
  GI50: 19.5 µM (inactive)
UO-31
  GI50: 24.3 µM (inactive)
SNB-19
  GI50: 24.7 µM (inactive)
DU-145
  GI50: 21.1 µM (inactive)
SW-620
  GI50: 22.8 µM (inactive)
CAKI-1
  GI50: > 45.8 µM (inactive)
MDA-N
  GI50: 18.2 µM (inactive)
OVCAR-5
  GI50: 20.4 µM (inactive)
MOLT-4
  GI50: 20.2 µM (inactive)
M14
  GI50: 25.6 µM (inactive)
ACHN
  GI50: 24.5 µM (inactive)
K562
  GI50: 22.3 µM (inactive)
RPMI-8226
  GI50: 25.3 µM (inactive)
NCI-H522
  GI50: 15.7 µM (inactive)
786-0
  GI50: 19.5 µM (inactive)
NCI/ADR-RES
  GI50: > 100 µM (inactive)
SF-295
  GI50: 18.9 µM (inactive)
UACC-257
  GI50: 20.7 µM (inactive)
MCF7
  GI50: 26 µM (inactive)
HCT-15
  GI50: > 50.1 µM
SK-MEL-28
  GI50: 19.4 µM (inactive)
HOP-92
  GI50: 35.4 µM (inactive)

## O=[N+]([O-])C(=C(Nc1ccccc1)Nc1ccccc1)/C(Cl)=C(\Cl)[N+](=O)[O-]
NCI-H460
  GI50: 14.7 µM (inactive)
COLO 205
  GI50: 2.67 µM (inactive)
NCI-H226
  GI50: 12.7 µM (inactive)
U-251
  GI50: 4.92 µM (inactive)
T47D
  GI50: 2.02 µM (inactive)
LOX IMVI
  GI50: 2.92 µM (inactive)
NCI-H23
  GI50: 3.04 µM (inactive)
SK-MEL-5
  GI50: 2.02 µM (inactive)
MDA-MB-231
  GI50: 3.88 µM (inactive)
TK-10
  GI50: 5.16 µM (inactive)
OVCAR-8
  GI50: 1.44 µM (inactive)
SK-MEL-2
  GI50: 9.84 µM (inactive)
Hs-578T
  GI50: 2.74 µM (inactive)
RXF 393
  GI50: 1.89 µM (inactive)
A549
  GI50: 10.8 µM (inactive)
BT-549
  GI50: 3.71 µM (inactive)
Malme-3M
  GI50: 3.54 µM (inactive)
SNB-75
  GI50: 7.57 µM (inactive)
EKVX
  GI50: 5.62 µM (inactive)
SN12C
  GI50: 2.48 µM (inactive)
MDA-MB-435
  GI50: 3.26 µM (inactive)
HCC 2998
  GI50: 12.2 µM (inactive)
PC-3
  GI50: 5.65 µM (inactive)
SF-268
  GI50: 2.98 µM (inactive)
SK-OV-3
  GI50: 20.3 µM (inactive)
UACC-62
  GI50: 4.58 µM (inactive)
A498
  GI50: 19.7 µM (inactive)
SF-539
  GI50: 1.84 µM (inactive)
KM12
  GI50: 3.98 µM (inactive)
OVCAR-4
  GI50: 6.62 µM (inactive)
HOP-62
  GI50: 10.3 µM (inactive)
HCT-116
  GI50: 2.73 µM (inactive)
OVCAR-3
  GI50: 2.82 µM (inactive)
HT-29
  GI50: 3.27 µM (inactive)
UO-31
  GI50: 3.07 µM (inactive)
SNB-19
  GI50: 12.9 µM (inactive)
DU-145
  GI50: 2.65 µM (inactive)
SW-620
  GI50: 2.19 µM (inactive)
CAKI-1
  GI50: 1.61 µM (inactive)
MDA-N
  GI50: 2.77 µM (inactive)
OVCAR-5
  GI50: 8.13 µM (inactive)
MOLT-4
  GI50: 2.43 µM (inactive)
M14
  GI50: 4.75 µM (inactive)
ACHN
  GI50: 2.61 µM (inactive)
SR
  GI50: 1.11 µM (active)
K562
  GI50: 3.41 µM (inactive)
RPMI-8226
  GI50: 3.15 µM (inactive)
CCRF-CEM
  GI50: 2.86 µM (inactive)
786-0
  GI50: 3.15 µM (inactive)
NCI/ADR-RES
  GI50: 3.81 µM (inactive)
SF-295
  GI50: 9.35 µM (inactive)
UACC-257
  GI50: 5.97 µM (inactive)
MCF7
  GI50: 4.14 µM (inactive)
HCT-15
  GI50: 2.7 µM
SK-MEL-28
  GI50: 3.62 µM (inactive)
